Among the data in article PMC9143943, “Novel Tyrosine Kinase Inhibitors to Target Chronic Myeloid Leukemia” (Molecules, 2022) are IC50, K562-S cell viability and melting point values, retold here.

In one data set the target is BCR-ABL kinase (Homo sapiens, UniProt P00519). In words: FRET-based Z'-Lyte kinase assay.
The target in a further data set is T1, HO-1 (Rattus norvegicus, UniProt P06762).
T1 construct: This microsomal preparation represents the most native (i.e., closest to in vivo) form of HO-1; from tissue; host or cells: rat spleen microsomes (male Sprague-Dawley rats)
T1 sequence (P06762 1-289): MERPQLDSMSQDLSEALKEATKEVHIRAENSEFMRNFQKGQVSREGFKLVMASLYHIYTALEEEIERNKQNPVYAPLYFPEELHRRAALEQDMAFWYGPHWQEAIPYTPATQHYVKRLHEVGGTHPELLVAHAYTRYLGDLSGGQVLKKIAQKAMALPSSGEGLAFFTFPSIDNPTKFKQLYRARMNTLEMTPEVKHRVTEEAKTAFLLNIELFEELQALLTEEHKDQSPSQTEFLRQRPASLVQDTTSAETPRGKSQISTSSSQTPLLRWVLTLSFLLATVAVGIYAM
In words: HO-1 enzymatic activity in microsomal fraction of rat spleen (bilirubin formation). The class given is biochemical. As to the method:
HO-1 activity was measured in microsomal fractions of rat spleen obtained as described in the experimental section. The activity was determined by measuring the bilirubin formation using the difference in absorbance at 464–530 nm. HO-1 inhibitors LS/0 and LS1/71 were used as reference compounds. […] Nevertheless, some observed differences in the results among the tested compounds allow us to discuss SAR as follows. HO-1 inhibitory activity mainly depends on the position of the oxybutylimidazole moiety and only to a lesser extent on the R substituent on the benzamide ring.
Since HO-1 protein is abundant in the rat spleen as well documented, rat spleen microsomal fraction prepared by differential centrifugation was used as source of the HO-1 protein. This microsomal preparation represents the most native (i.e., closest to in vivo) form of HO-1. Spleen microsomal fractions were obtained according to Ryter et al.. The experiments reported in the present paper complied with current Italian law and met the guidelines of the Institutional Animal Care and Use Committee of Ministry of Health (Directorate General for Animal Health and Veterinary Medicines, Italy) “Dosing of enzymatic activities in rat microsomes” (2018–2022), project code 02769.N.VLY. Male Sprague–Dawley albino rats (150 g body weight and age 45 d) used in our experimental conditions to obtain spleen microsomal fraction had free access to water and were kept at room temperature with a natural photo-period (12 h light–12 h dark cycle). To obtain a homogenate (15%, w/v) of spleens, each rat was sacrificed, and its spleen was excised and weighed. Spleens pooled from five rats were homogenized in 50 mM Tris buffer, pH 7.4, containing 0.25 M sucrose, using a Potter–Elvehjem homogenizing system with a Teflon pestle. The microsomal fraction of rat spleen homogenate was obtained by differential centrifugation: first centrifugation at 10,000× g for 20 min at 4 °C and a second centrifugation of the supernatant at 100,000× g for 60 min at 4 °C. The 100,000× g pellet (microsomes) was resuspended in 100 mM potassium phosphate buffer, pH 7.8, containing 2 mM MgCl2. The rat spleen fraction was divided into aliquots and stored at −80 °C for up to 2 months, and then its protein concentration was measured.
Biliverdin reductase was obtained by using rat liver cytosol. Three volumes of a solution 1.15% KCl w/v and Tris buffer 20 mM, pH 7.8, were used to homogenize on ice liver tissue. The 10,000× g supernatant was obtained by differential centrifugation: first centrifugation at 10,000× g for 20 min at 4 °C and a second centrifugation at […] at 4 °C to sediment the microsomes. The 10,000× g supernatant was stored in small amounts at −80 °C, and then its protein concentration was measured.
The HO-1 activity was determined by measuring the bilirubin formation using the difference in absorbance at 464–530 nm, as described by Ryter et al.. A final volume of 500 μL of incubation mixtures contained 20 mM Tris–HCl, pH 7.4, (1 mg/mL) microsomal extract, 0.5–2 mg/mL biliverdin reductase, 1 mM NADPH, 2 mM glucose 6-phosphate (G6P), 1 U G6P dehydrogenase, 25 μM hemin, and 10 μL of DMSO (or the same volume of DMSO solution of test compounds to a final concentration of 100, 10, and 1 μM). Enzymatic reactions were carried out in the dark for 60 min at 37 °C in a circulating water bath. The reactions were stopped by the addition of 500 μL of chloroform. After recovering the chloroform phase, the amount of bilirubin formed was measured with a double-beam spectrophotometer as OD464–530 nm (extinction coefficient, 40 mM/cm^−1 for bilirubin). The enzymatic activity was defined as Units (one Unit is the amount of enzyme catalyzing the formation of 1 nmol of bilirubin/mg protein/h).

In the next data set the test system is K562-S cells. Put plainly: In vitro cytotoxicity, NIL-sensitive K562 cells (trypan blue / XTT). The class given is cell-based. Conditions: 0.5 and 5 μM, 48 h. As to the method:
K562 cells (CCL-243 ATCC) were cultured in RPMI 1640 (L0500, Biowest, Riverside, MO, USA) supplemented with 10% Fetal Bovine Serum (FBS) and 1% penicillin–streptomycin and incubated at 37 °C in 5% CO2. K562 cells were seeded at a concentration of 1 × 10^5 cells/mL of culture medium. […] Briefly, cells were harvested by centrifugation and resuspended in 5 mL of fresh medium; then an aliquot of 10 μL was taken and mixed with Trypan Blue (93595, Sigma-Aldrich, Milan, Italy) stain (1:1). The mixture was applied on a counting chamber, and cells were counted on a binocular microscope. […] Once resistance was established (after approximately 9 months), K562-R and K562-S were treated with compounds at different concentrations.
Treatments were maintained for 48 h, and then cell viability was assessed: (a) with 0.2% (final concentration) trypan blue dye exclusion analysis which is used to determine the number of viable cells present in a cell suspension and (b) with XTT assay.
• (a) Briefly, the cell number was determined by counting the viable cells in a Burker counting chamber divided into 16 fields of 1 mm^2. […]
A general note: Formazan colour is commonly taken as a measure of viable cells.

Setting [1] is: experimental HO-1 IC50 repeated in Table 3, read-out: IC50.
Setting [2] is: rat spleen microsomal fraction, read-out: HO-1 IC50 (μM) ± SD.

SMILES strings stand for the structures. Entries after “also recorded” stand apart in the source; their conditions may differ. Where two headings read alike, the source gives them in different places.

BCR-ABL kinase, sequence (P00519 whole entry): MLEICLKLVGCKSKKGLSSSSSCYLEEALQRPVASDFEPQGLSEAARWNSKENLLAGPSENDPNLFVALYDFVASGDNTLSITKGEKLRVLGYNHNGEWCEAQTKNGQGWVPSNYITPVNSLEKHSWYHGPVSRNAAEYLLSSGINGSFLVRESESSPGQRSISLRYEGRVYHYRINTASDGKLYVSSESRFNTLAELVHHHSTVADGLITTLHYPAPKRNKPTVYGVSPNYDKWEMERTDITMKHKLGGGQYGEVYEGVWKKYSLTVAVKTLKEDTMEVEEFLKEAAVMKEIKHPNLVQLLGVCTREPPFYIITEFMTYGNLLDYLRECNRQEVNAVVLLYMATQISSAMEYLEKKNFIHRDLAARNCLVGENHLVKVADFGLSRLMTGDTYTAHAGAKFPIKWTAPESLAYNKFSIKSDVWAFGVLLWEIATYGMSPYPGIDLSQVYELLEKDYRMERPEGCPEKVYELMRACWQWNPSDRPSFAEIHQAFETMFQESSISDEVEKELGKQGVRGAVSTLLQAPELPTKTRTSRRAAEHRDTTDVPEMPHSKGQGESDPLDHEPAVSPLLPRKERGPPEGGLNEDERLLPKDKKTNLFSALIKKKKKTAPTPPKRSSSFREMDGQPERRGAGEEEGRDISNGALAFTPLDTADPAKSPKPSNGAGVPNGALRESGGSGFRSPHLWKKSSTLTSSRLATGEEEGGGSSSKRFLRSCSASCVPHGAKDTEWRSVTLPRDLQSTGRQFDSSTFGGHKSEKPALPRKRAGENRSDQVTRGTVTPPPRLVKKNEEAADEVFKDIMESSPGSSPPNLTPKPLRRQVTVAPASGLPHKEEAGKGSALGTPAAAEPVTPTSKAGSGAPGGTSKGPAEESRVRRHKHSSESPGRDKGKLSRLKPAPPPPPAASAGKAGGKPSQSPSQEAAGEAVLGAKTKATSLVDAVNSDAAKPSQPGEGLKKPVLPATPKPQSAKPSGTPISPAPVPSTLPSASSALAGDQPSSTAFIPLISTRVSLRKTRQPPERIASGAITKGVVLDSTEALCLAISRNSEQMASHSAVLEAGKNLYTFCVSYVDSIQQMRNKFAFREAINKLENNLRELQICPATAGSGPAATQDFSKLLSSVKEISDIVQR
Experimental for BCR-ABL kinase: Novel compounds were tested to investigate their ability to inhibit both BCR-ABL TK and HO-1.

In the case of `Cc1ccc(C(=O)Nc2ccc(OCCCCn3ccnc3)c(Br)c2)cc1Nc1nccc(-c2cccnc2)n1` [Compound 1e, N-(4-(4-(1H-imidazol-1-yl)butoxy)-3-bromophenyl)-4-methyl-3-((4-(pyridin-3-yl)pyrimidin-2-yl)amino)benzamide], the half-maximal inhibitory concentration (IC50) (in general, the concentration needed to halve the response being measured) is 0.037 ± 0.0012 µM against BCR-ABL kinase, 55.1 µM on HO-1 (setting [1]) and 55.1 ± 0.71 µM on HO-1 (setting [2]).
With `Cc1ccc(C(=O)Nc2cc(OCCCCn3ccnc3)cc(C(F)(F)F)c2)cc1Nc1nccc(-c2cccnc2)n1` [Compound 1h, N-(3-(4-(1H-imidazol-1-yl)butoxy)-5-(trifluoromethyl)phenyl)-4-methyl-3-((4-(pyridin-3-yl)pyrimidin-2-yl)amino)benzamide], the melting point (usually the temperature of the solid-liquid transition) fell in the range of 180.3 to 182.5 °C. Moreover, the IC50 against BCR-ABL kinase stood at 0.77 ± 0.042 µM. For the same compound, on HO-1 (setting [1]), the concentration for half-maximal inhibition (IC50) is 65.4 µM. Further, the IC50 at HO-1 (setting [2]) came to 65.4 ± 1.39 µM. Moreover, in the data set on K562-S cells, the K562-S cell viability entry was “significant reduction; also recorded: cytotoxic properties similar to NIL and IM”.
As to `Cc1ccc(OCCCCn2ccnc2)c(NC(=O)c2ccc(C)c(Nc3nccc(-c4cccnc4)n3)c2)c1` [Compound 1j, N-(2-(4-(1H-imidazol-1-yl)butoxy)-5-methylphenyl)-4-methyl-3-((4-(pyridin-3-yl)pyrimidin-2-yl)amino)benzamide], the concentration for half-maximal inhibition (IC50) against BCR-ABL kinase is 5.45 ± 0.223 µM; on HO-1 (setting [1]) it was 3060 µM; at HO-1 (rat spleen microsomal fraction, read-out: HO-1 IC50) it was ~3000 µM; at HO-1 (setting [2]) it was 3060 ± 201 µM.
The compound `Cc1ccc(C(=O)Nc2cc(Br)cc(OCCCCn3ccnc3)c2)cc1Nc1nccc(-c2cccnc2)n1` [Compound 1g, N-(3-(4-(1H-imidazol-1-yl)butoxy)-5-bromophenyl)-4-methyl-3-((4-(pyridin-3-yl)pyrimidin-2-yl)amino)benzamide] yielded a melting point of 162 to 164.4 °C. Besides, inhibition against BCR-ABL kinase was half-maximal at 0.077 ± 0.0036 µM (IC50). At HO-1 (setting [1]), the half-inhibitory concentration (IC50) came to 51 µM. The concentration for half-maximal inhibition (IC50) on HO-1 (setting [2]) was found to be 51 ± 0.99 µM. In addition, in the data set on K562-S cells, the K562-S cell viability entry was “significant reduction; also recorded: cytotoxic properties similar to NIL and IM”.
As to `Cc1ccc(C(=O)Nc2cc(OCCCCn3ccnc3)ccc2Br)cc1Nc1nccc(-c2cccnc2)n1` [Compound 1d, N-(5-(4-(1H-imidazol-1-yl)butoxy)-2-bromophenyl)-4-methyl-3-((4-(pyridin-3-yl)pyrimidin-2-yl)amino)benzamide], the melting point is 69.8 to 72 °C. Moreover, on BCR-ABL kinase, the IC50 is 16.2 ± 0.208 µM. Further, the IC50 on HO-1 (setting [1]) is 116 µM. Also, the IC50 on HO-1 (setting [2]) was found to be 116 ± 5.24 µM.
`Cc1ccc(C(=O)Nc2ccc(Br)cc2OCCCCn2ccnc2)cc1Nc1nccc(-c2cccnc2)n1` [Compound 1i, N-(2-(4-(1H-imidazol-1-yl)butoxy)-4-bromophenyl)-4-methyl-3-((4-(pyridin-3-yl)pyrimidin-2-yl)amino)benzamide] gave a melting point of 94 to 96 °C. For the same compound, the half-inhibitory concentration (IC50) at BCR-ABL kinase worked out at 13.7 ± 0.139 µM. Further, the IC50 at HO-1 (setting [1]) was found to be 83.4 µM. Besides, the IC50 on HO-1 (setting [2]) came out at 83.4 ± 2.3 µM.
Compound `Cc1ccc(C(=O)Nc2ccc(OCCCCn3ccnc3)cc2)cc1Nc1nccc(-c2cccnc2)n1` [Compound 1a, N-(4-(4-(1H-imidazol-1-yl)butoxy)phenyl)-4-methyl-3-((4-(pyridin-3-yl)pyrimidin-2-yl)amino)benzamide] registered a melting point of 140 to 142 °C. Further, half-maximal inhibition against BCR-ABL kinase (IC50) required 0.109 ± 0.0016 µM. The IC50 on HO-1 (setting [1]) was found to be 44.8 µM. Also, the half-maximal inhibitory concentration (IC50) on HO-1 (setting [2]) was determined as 44.8 ± 2.58 µM.
For `Cc1ccc(C(=O)Nc2cccc(OCCCCn3ccnc3)c2)cc1Nc1nccc(-c2cccnc2)n1` [Compound 1b, N-(3-(4-(1H-imidazol-1-yl)butoxy)phenyl)-4-methyl-3-((4-(pyridin-3-yl)pyrimidin-2-yl)amino)benzamide] the same measures were 118 to 120 °C, 4.19 ± 0.16 µM, 64.6 µM and 64.6 ± 0.69 µM.
As to `Cc1ccc(C(=O)Nc2ccccc2OCCCCn2ccnc2)cc1Nc1nccc(-c2cccnc2)n1` [Compound 1c, N-(2-(4-(1H-imidazol-1-yl)butoxy)phenyl)-4-methyl-3-((4-(pyridin-3-yl)pyrimidin-2-yl)amino)benzamide], the IC50 was 14.6 ± 0.283 µM at BCR-ABL kinase, 149 µM at HO-1 (setting [1]) and 149 ± 8.1 µM on HO-1 (setting [2]).
In the case of `Cc1ccc(C(=O)Nc2ccc(Br)c(OCCCCn3ccnc3)c2)cc1Nc1nccc(-c2cccnc2)n1` [Compound 1f, N-(3-(4-(1H-imidazol-1-yl)butoxy)-4-bromophenyl)-4-methyl-3-((4-(pyridin-3-yl)pyrimidin-2-yl)amino)benzamide], the IC50 against BCR-ABL kinase stood at 5.21 ± 0.224 µM; at HO-1 (setting [1]), 100 µM; at HO-1 (setting [2]), 100 ± 3.29 µM.
